Measured values taken from PubChem BioAssay AID1963965 (Molecular Pharmacology Branch, DTP, NCI, 2024).
pIC50: −log10 of the molar value.

Test system: 996289-038-R-J1-PDC spheroid viability
Assay: Anticancer human tumor 996289-038-R-J1-PDC patient-derived colon adenocarcinoma cell line growth inhibition [PI3K]
Settings: spheroids with HUVEC and MSC; for pIC50: curve of first compound; for viability, T/C: stronger effect = lower value
Procedure, shortened: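 Complex 3D spheroids (cancer cells + endothelial HUVEC + mesenchymal stem cells); drug pairs of targeted agent x inavolisib/alpelisib/duvelisib/copanlisib; half-log series from ~Cmax, max 10 microM if Cmax unknown; endpoint viability.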

[1] = second compound 0.0316 µM, first compound 0.0316 µM
[2] = second compound 0.0316 µM, first compound 0.1 µM
[3] = second compound 0.0316 µM, first compound 0.316 µM
[4] = second compound 0.0316 µM, first compound 1 µM
[5] = second compound 0.0316 µM, first compound 3.16 µM
[6] = second compound 0.0316 µM, first compound 10 µM
[7] = second compound 0.1 µM, first compound 0.0316 µM
[8] = second compound 0.1 µM, first compound 0.1 µM
[9] = second compound 0.1 µM, first compound 0.316 µM
[10] = second compound 0.1 µM, first compound 1 µM
[11] = second compound 0.1 µM, first compound 3.16 µM
[12] = second compound 0.1 µM, first compound 10 µM
[13] = second compound 0.316 µM, first compound 0.0316 µM
[14] = second compound 0.316 µM, first compound 0.1 µM
[15] = second compound 0.316 µM, first compound 0.316 µM
[16] = second compound 0.316 µM, first compound 1 µM
[17] = second compound 0.316 µM, first compound 3.16 µM
[18] = second compound 0.316 µM, first compound 10 µM
[19] = second compound 1 µM, first compound 0.0316 µM
[20] = second compound 1 µM, first compound 0.1 µM
[21] = second compound 1 µM, first compound 0.316 µM
[22] = second compound 1 µM, first compound 1 µM
[23] = second compound 1 µM, first compound 3.16 µM
[24] = second compound 1 µM, first compound 10 µM
[25] = second compound 3.16 µM, first compound 0.0316 µM
[26] = second compound 3.16 µM, first compound 0.1 µM
[27] = second compound 3.16 µM, first compound 0.316 µM
[28] = second compound 3.16 µM, first compound 1 µM
[29] = second compound 3.16 µM, first compound 3.16 µM
[30] = second compound 3.16 µM, first compound 10 µM
[31] = second compound 10 µM, first compound 0.0316 µM
[32] = second compound 10 µM, first compound 0.1 µM
[33] = second compound 10 µM, first compound 0.316 µM
[34] = second compound 10 µM, first compound 1 µM
[35] = second compound 10 µM, first compound 3.16 µM
[36] = second compound 10 µM, first compound 10 µM
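Also: spheroids exposed to compounds for seven days before viability read.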
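For viability, T/C in this document: luminescence used as a proxy for viable cell amount; percent viability relative to DMSO vehicle control as 100%.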

CC(Cn1ccc(-c2ccc(C#N)c(Cl)c2)n1)NC(=O)c1cc(C(C)O)[nH]n1 (stereo unspecified) + CC(Nc1ncnc2nc[nH]c12)c1cc2cccc(Cl)c2c(=O)n1-c1ccccc1
pIC50 (second compound 0.0316 µM): < 5.00 | pIC50 (second compound 0.1 µM): < 5.00 | pIC50 (second compound 0.316 µM): < 5.00 | pIC50 (second compound 1 µM): < 5.00 | pIC50 (second compound 3.16 µM): < 5.00 | pIC50 (second compound 10 µM): < 5.00 | viability, T/C [1]: 109% | viability, T/C [2]: 89.9% | viability, T/C [3]: 108% | viability, T/C [4]: 110% | viability, T/C [5]: 106% | viability, T/C [6]: 101% | viability, T/C [7]: 95.2% | viability, T/C [8]: 97.3% | viability, T/C [9]: 102% | viability, T/C [10]: 101% | viability, T/C [11]: 110% | viability, T/C [12]: 91.5% | viability, T/C [13]: 105% | viability, T/C [14]: 99.2% | viability, T/C [15]: 105% | viability, T/C [16]: 93.9% | viability, T/C [17]: 113% | viability, T/C [18]: 91.3% | viability, T/C [19]: 95.7% | viability, T/C [20]: 96.2% | viability, T/C [21]: 97.3% | viability, T/C [22]: 99.3% | viability, T/C [23]: 102% | viability, T/C [24]: 106% | viability, T/C [25]: 91.6% | viability, T/C [26]: 92.7% | viability, T/C [27]: 96.7% | viability, T/C [28]: 90.6% | viability, T/C [29]: 91.9% | viability, T/C [30]: 84.7% | viability, T/C [31]: 80.2% | viability, T/C [32]: 81.8% | viability, T/C [33]: 84.6% | viability, T/C [34]: 91.5% | viability, T/C [35]: 100% | viability, T/C [36]: 89.8%

C[C@@H](NC(=O)c1ncnc(N)c1Cl)c1ncc(C(=O)Nc2cc(C(F)(F)F)c(Cl)cn2)s1 + CC(Nc1ccc2c(c1)OCCn1cc(N3C(=O)OCC3C(F)F)nc1-2)C(N)=O
pIC50 (second compound 0.00316 µM): < 5.00 | pIC50 (second compound 0.01 µM): < 5.00 | pIC50 (second compound 0.0316 µM): < 5.00 | pIC50 (second compound 0.1 µM): < 5.00 | pIC50 (second compound 0.316 µM): < 5.00 | pIC50 (second compound 1 µM): < 5.00 | viability, T/C (second compound 0.00316 µM, first compound 0.0316 µM): 115% | viability, T/C (second compound 0.00316 µM, first compound 0.1 µM): 124% | viability, T/C (second compound 0.00316 µM, first compound 0.316 µM): 129% | viability, T/C (second compound 0.00316 µM, first compound 1 µM): 123% | viability, T/C (second compound 0.00316 µM, first compound 3.16 µM): 135% | viability, T/C (second compound 0.00316 µM, first compound 10 µM): 122% | viability, T/C (second compound 0.01 µM, first compound 0.0316 µM): 119% | viability, T/C (second compound 0.01 µM, first compound 0.1 µM): 124% | viability, T/C (second compound 0.01 µM, first compound 0.316 µM): 107% | viability, T/C (second compound 0.01 µM, first compound 1 µM): 139% | viability, T/C (second compound 0.01 µM, first compound 3.16 µM): 140% | viability, T/C (second compound 0.01 µM, first compound 10 µM): 122% | viability, T/C [1]: 116% | viability, T/C [2]: 103% | viability, T/C [3]: 111% | viability, T/C [4]: 120% | viability, T/C [5]: 128% | viability, T/C [6]: 111% | viability, T/C [7]: 93.7% | viability, T/C [8]: 93.1% | viability, T/C [9]: 91.7% | viability, T/C [10]: 119% | viability, T/C [11]: 107% | viability, T/C [12]: 110% | viability, T/C [13]: 70% | viability, T/C [14]: 87.6% | viability, T/C [15]: 87.2% | viability, T/C [16]: 105% | viability, T/C [17]: 109% | viability, T/C [18]: 83.3% | viability, T/C [19]: 68% | viability, T/C [20]: 78.1% | viability, T/C [21]: 57.8% | viability, T/C [22]: 81.9% | viability, T/C [23]: 85.6% | viability, T/C [24]: 65.3%

CC(Cn1ccc(-c2ccc(C#N)c(Cl)c2)n1)NC(=O)c1cc(C(C)O)[nH]n1 (stereo unspecified) + Cc1nc(NC(=O)N2CCCC2C(N)=O)sc1-c1ccnc(C(C)(C)C(F)(F)F)c1
pIC50 (second compound 0.0316 µM): < 5.00 | pIC50 (second compound 0.1 µM): < 5.00 | pIC50 (second compound 0.316 µM): < 5.00 | pIC50 (second compound 1 µM): < 5.00 | pIC50 (second compound 3.16 µM): < 5.00 | pIC50 (second compound 10 µM): > 7.50 | viability, T/C [1]: 84% | viability, T/C [2]: 86.7% | viability, T/C [3]: 95.2% | viability, T/C [4]: 109% | viability, T/C [5]: 98.9% | viability, T/C [6]: 91.8% | viability, T/C [7]: 96.6% | viability, T/C [8]: 89.7% | viability, T/C [9]: 97.8% | viability, T/C [10]: 94.4% | viability, T/C [11]: 92.4% | viability, T/C [12]: 92.3% | viability, T/C [13]: 95.8% | viability, T/C [14]: 85.3% | viability, T/C [15]: 85% | viability, T/C [16]: 77.3% | viability, T/C [17]: 78.3% | viability, T/C [18]: 85.3% | viability, T/C [19]: 68.8% | viability, T/C [20]: 82.4% | viability, T/C [21]: 80.9% | viability, T/C [22]: 89.9% | viability, T/C [23]: 77% | viability, T/C [24]: 69.3% | viability, T/C [25]: 58.5% | viability, T/C [26]: 55.8% | viability, T/C [27]: 66.6% | viability, T/C [28]: 66.7% | viability, T/C [29]: 72.7% | viability, T/C [30]: 50.9% | viability, T/C [31]: 49% | viability, T/C [32]: 43.1% | viability, T/C [33]: 48.9% | viability, T/C [34]: 42.3% | viability, T/C [35]: 43.1% | viability, T/C [36]: 46.4%
